The experiment deals with M. tuberculosis. Kind of experiment: BACTEC radiometric MIC test for bactericidal activity against M. tuberculosis. The class given is cell-based. To be noted: Mycobacterium tuberculosis, read-out: minimum inhibitory concentration (MIC).
In the case of `O=C1C(=O)N(CCC2CCN(Cc3ccccc3)CC2)c2ccc(C3CCCCC3)cc21` [Example 1, 5-Cyclohexyl-1-[2-[1-(phenylmethyl)-4-piperidinyl]ethyl]-1H-indole-2,3-dione], the MIC is not above 20 µg/mL.
Turning to `O=C1C(=O)N(CCN2CCN(Cc3ccccc3)CC2)c2c1cccc2C1CCCCCC1` [Example 2, 7-Cycloheptyl-1-[2-[4-(phenylmethyl)-1-piperazinyl]ethyl]-1H-indole-2,3-dione], the MIC is not above 20 µg/mL.
`CCN(CCCCCN1C(=O)C(=O)c2cc(C3CCCCC3)ccc21)Cc1ccccc1` [Example 3, 5-Cyclohexyl-1-(5-(N-ethyl-N-phenylmethylamino)pentyl)-1H-indole-2,3-dione]: the MIC is not above 20 µg/mL.
For `O=C1Cc2cc(C3CCCCC3)ccc2N1CCC1CCN(Cc2ccccc2)CC1` [Example 4, 5-Cyclohexyl-1,3-dihydro-1-[2-[1-(phenylmethyl) 4-piperidinyl]ethyl]-2H-2H-indol-2-one], the MIC was not above 20 µg/mL.
On to `CCN(CCCCN1C(=O)C(=O)c2ccccc21)Cc1ccccc1` [Example 5, 1-(4-(N-Ethyl-N-phenylmethylamino)butyl)-1H-indole-2,3-dione], for which the MIC was not above 20 µg/mL.
Turning to `O=C1C(=O)N(CCN2CCN(Cc3ccccc3)CC2)c2ccc(-c3ccccc3)cc21` [Example 6, 5-Phenyl-1-[2-[4-(phenylmethyl)-1-perazinyl]ethyl]-1H-indole-2,3-dione], the MIC was not above 20 µg/mL.
As to `O=C1C(=O)N(CCN2CCN(Cc3ccccc3)CC2)c2c1cccc2C1CCCC1` [Example 7, 7-Cyclopentyl-1-[2-[4-(phenylmethyl)-1-piperazinyl]ethyl]-1H-indole-2,3-dione], the MIC is not above 20 µg/mL.
The figure for `O=C1C(=O)N(CCN2CCN(Cc3ccccc3)CC2)c2ccc(N3CCCCC3)cc21` [Example 8, 5-(1-Piperidinyl)-1-[2-[4-(phenylmethyl)-1-piperazinyl]ethyl]-1H-indole-2,3-dione] is not above 20 µg/mL.
The figure for `O=C1C(=O)N(CCCCBr)c2ccc(C3CCCCC3)cc21` [Example 9, 1-(4-Bromobutyl)-5-cyclohexyl-1H-indole-2,3-dione] is not above 20 µg/mL.
Take `CCCCCCCCCN1C(=O)C(=O)c2cccc(-c3ccccc3)c21` [Example 10, 1-Nonyl-7-phenyl-1H-indole-2,3-dione]: the MIC is not above 20 µg/mL.
The figure for `CCCCCCCN1C(=O)C(=O)c2cccc(-c3ccccc3)c21` [Example 11, 1-Heptyl-7-phenyl-1H-indole-2,3-dione] is not above 20 µg/mL.
For `CCCCCCCCN1C(=O)C(=O)c2cccc(-c3ccccc3)c21` [Example 12, 1-Octyl-7-phenyl-1-H-indole-2,3-dione] the value was not above 20 µg/mL; for `CCCCCCCCCCN1C(=O)C(=O)c2cccc(-c3ccccc3)c21` [Example 13, 1-Decyl-7-phenyl-1-H-indole-2,3-dione], not above 20 µg/mL.
For `CCCCCCCCCCCN1C(=O)C(=O)c2cccc(-c3ccccc3)c21` [Example 14, 1-Undececyl-7-phenyl-1-H-indole-2,3-dione] the value was not above 20 µg/mL; for `CCCCCN1C(=O)C(=O)c2cccc(-c3ccccc3)c21` [Example 15, 1-Pentyl-7-phenyl-1H-indole-2,3-dione], not above 20 µg/mL.
With `CCCCN1C(=O)C(=O)c2cccc(-c3ccccc3)c21` [Example 16, 1-Butyl-7-phenyl-1H-inidole-2,3-dione], the MIC was not above 20 µg/mL.
For the molecule `CC(C)CN1C(=O)C(=O)c2cccc(-c3ccccc3)c21` [Example 17, 1-(2-Methylpropyl)-7-phenyl-1H-indole-2,3-dione], the MIC is not above 20 µg/mL.
For `CCCCCCN1C(=O)C(=O)c2cccc(-c3ccccc3)c21` [Example 18, 1-Hexyl-7-phenyl-1-indole-2,3-dione] the value was not above 20 µg/mL; for `CCCCCCCCCCCCN1C(=O)C(=O)c2cccc(-c3ccccc3)c21` [Example 19, 1-Dodecyl-7-phenyl-1H-indole-2,3-dione], not above 20 µg/mL; for `O=C1C(=O)N(CCCCBr)c2c1cccc2-c1ccccc1` [Example 20, 1-(4-Bromobutyl)-7-phenyl-1H-indole-2,3-dione], not above 20 µg/mL.

The values are drawn from patent US6906090B1, “Compositions and methods for treating mycobacterial diseases” (AstraZeneca AB, priority 1998, dated 2005).
